{"source": "patent US7135437B2", "about": "“Stable liquid pesticide compositions” (Monsanto Technology LLC, priority 2000, dated 2006)", "origin": "cited, not measured here", "conditions": "at 20° C.", "data": [{"smiles": "O=C(O)CNCP(=O)([O-])O.[K+]", "note": "[glyphosate potassium salt]", "values": [{"measurement": "solubility in pure water, glyphosate acid equivalent", "value": "about 44 % glyphosate acid equivalent (a.e.) by weight"}, {"measurement": "solubility in pure water", "setting": "as salt", "value": "about 54 % by weight"}]}]}
